Literature values as cited in US20100330150A1, “Orally Disintegrating Tablet Compositions Comprising Combinations of High and Low-Dose Drugs” (priority 2009, published 2010).

Tests used:
serum protein = conditions: after normal therapeutic dosages

## CC(=O)Nc1ccc(O)cc1 [acetaminophen]
Serum protein
  Binding to serum protein: about 25%
normal, healthy patients
  Plasma half-life: 1 to 2.5 h
Oral administration
  Time after which only traces of the drug are detectable: about 8 hours
  Time at which peak plasma concentrations are attained: 30 to 60 min
